In patent US10766884B2 (Pfizer Inc., priority 2018, dated 2020):

Legend:
CDK4/Cyclin D1 = CDK4/Cyclin D1 (Homo sapiens (Human), UniProt P11802); assay: CDK4/Cyclin D1 mobility shift assay; assay type: biochemical; settings: activated CDK4/Cyclin D1, 3.5 mM ATP, Morrison fit; read-out: CDK4D1 Ki
Protocol: (§1) The purpose CDK4/Cyclin D1 assay is to evaluate the inhibition (% inhibition, Kiapp and Ki values) in the presence of small molecule inhibitors by using a fluorescence based microfluidic mobility shift assay. […] The mobility shift assay electrophoretically separates the fluorescently labeled peptides (substrate and phosphorylated product) following the kinase reaction. Both substrate and product are measured and the ratio of these values is used to generate % Conversion of substrate to product by the LabChip EZ Reader.
The reaction was stopped after 195 minutes by the addition of 50 μL of 30 mM EDTA. Ki determinations were made from a plot of the fractional velocity as a function of inhibitor concentration fit to the Morrison equation with the enzyme concentration as a variable.
(§2) For CDK4 and CDK6 mobility shift assays, see also Morrison, J. F. (1969) Kinetics of the reversible inhibition of enzyme-catalysed reactions by tight-binding inhibitors, Biochimica et biophysica acta 185, 269-286; and Murphy, D. J. (2004) Determination of accurate KI values for tight-binding enzyme inhibitors: an in silico study of experimental error and assay design, Analytical biochemistry 327, 61-67.

CDK6/Cyclin D3 = CDK6/Cyclin D3 (Homo sapiens (Human), UniProt Q00534); assay: CDK6/Cyclin D3 mobility shift assay; assay type: biochemical; settings: activated CDK6/Cyclin D3, 3.5 mM ATP, Morrison fit; read-out: CDK6_D3 Ki
Chain of CDK6/Cyclin D3 (Q00534 whole entry): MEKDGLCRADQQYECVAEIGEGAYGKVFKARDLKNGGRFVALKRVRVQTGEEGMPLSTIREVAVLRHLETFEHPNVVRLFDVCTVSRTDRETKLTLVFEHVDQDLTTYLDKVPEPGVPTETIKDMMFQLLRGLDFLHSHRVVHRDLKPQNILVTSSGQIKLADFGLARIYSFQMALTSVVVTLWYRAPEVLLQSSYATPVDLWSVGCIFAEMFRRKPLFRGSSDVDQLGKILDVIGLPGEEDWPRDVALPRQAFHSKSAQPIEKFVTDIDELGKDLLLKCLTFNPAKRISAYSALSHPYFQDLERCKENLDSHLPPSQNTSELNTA
Chain of CDK6/Cyclin D3 (P30281 whole entry partner): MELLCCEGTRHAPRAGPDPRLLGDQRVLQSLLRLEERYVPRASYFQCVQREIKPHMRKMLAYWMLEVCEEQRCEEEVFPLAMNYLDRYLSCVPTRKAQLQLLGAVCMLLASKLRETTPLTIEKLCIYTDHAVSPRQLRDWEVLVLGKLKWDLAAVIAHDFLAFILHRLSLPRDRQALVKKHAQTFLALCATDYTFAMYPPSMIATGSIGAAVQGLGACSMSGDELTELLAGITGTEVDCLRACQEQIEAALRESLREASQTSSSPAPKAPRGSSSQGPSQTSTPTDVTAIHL
Protocol: as §1, with “of the CDK6/Cyclin D3” for “CDK4/Cyclin D1”, “conversion” for “Conversion”
The reaction was stopped after 95 minutes by the addition of 50 μL of 30 mM EDTA. Ki determinations were made from a plot of the fractional velocity as a function of inhibitor concentration fit to the Morrison equation with the enzyme concentration as a variable.
as §2

Chain of CDK4/Cyclin D1 (P11802 whole entry): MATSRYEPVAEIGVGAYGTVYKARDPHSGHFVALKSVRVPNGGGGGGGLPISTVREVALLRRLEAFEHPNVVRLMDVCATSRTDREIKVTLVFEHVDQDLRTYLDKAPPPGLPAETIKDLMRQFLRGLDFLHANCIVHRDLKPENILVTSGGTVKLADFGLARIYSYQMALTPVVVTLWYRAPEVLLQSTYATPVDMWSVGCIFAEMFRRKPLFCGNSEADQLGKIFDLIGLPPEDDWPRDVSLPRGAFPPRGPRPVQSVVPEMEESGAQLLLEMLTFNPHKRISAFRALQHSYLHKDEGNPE
Chain of CDK4/Cyclin D1 (P24385 whole entry partner): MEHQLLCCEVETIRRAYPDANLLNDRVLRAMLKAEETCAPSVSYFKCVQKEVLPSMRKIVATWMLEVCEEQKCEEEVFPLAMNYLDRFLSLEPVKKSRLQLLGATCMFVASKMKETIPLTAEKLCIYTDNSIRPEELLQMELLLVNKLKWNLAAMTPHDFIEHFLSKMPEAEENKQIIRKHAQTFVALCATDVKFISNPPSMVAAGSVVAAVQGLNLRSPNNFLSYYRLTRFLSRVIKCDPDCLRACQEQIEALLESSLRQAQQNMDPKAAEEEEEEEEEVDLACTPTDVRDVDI

Row | Compound | Ki (CDK4/Cyclin D1) [nM] | Ki (CDK6/Cyclin D3) [nM]
1 | Cc1nc2ncc(-c3nc(N[C@@H]4CCN(S(C)(=O)=O)C[C@H]4O)ncc3Cl)cc2n1C(C)C [Example A85, (3R,4R)-4-({5-chloro-4-[2-methyl-1-(propan-2-yl)-1H-imidazo[4,5-b]pyridin-6-yl]pyrimidin-2-yl}amino)-1-(methanesulfonyl)piperidin-3-ol] | 9.9 | 62.8
2 | CC(C)n1c(C2(N)CC2)nc2c(F)cc(-c3nc(N[C@@H]4CCOC[C@H]4O)ncc3Cl)cc21 [Example A43, 3-({4-[2-(1-aminocyclopropyl)-4-fluoro-1-(propan-2-yl)-1H-benzimidazol-6-yl]-5-chloropyrimidin-2-yl}amino)-1,5-anhydro-2,3-dideoxy-D-threo-pentitol] | 4.8 | 44
3 | CC(C)n1c([C@@H](C)O)nc2c(F)cc(-c3nc(N[C@@H]4CCNC[C@H]4O)ncc3Cl)cc21 [Example A50, (3R,4R)-4-[(5-chloro-4-{4-fluoro-2-[(1R)-1-hydroxyethyl]-1-(propan-2-yl)-1H-benzimidazol-6-yl}pyrimidin-2-yl)amino]piperidin-3-ol] | 17 | 110
4 | Cc1nc2ccc(-c3nc(N[C@@H]4CCN(S(C)(=O)=O)C[C@H]4O)ncc3Cl)nc2n1C(C)C [Example A86, (3R,4R)-4-({5-chloro-4-[2-methyl-3-(propan-2-yl)-3H-imidazo[4,5-b]pyridin-5-yl]pyrimidin-2-yl}amino)-1-(methanesulfonyl)piperidin-3-ol] | 4.7 | 23.5
5 | CNCC(=O)N1CC[C@@H](Nc2ncc(Cl)c(-c3cc(F)c4ncn(C(C)C)c4c3)n2)[C@H](O)C1 [Example F24, 1-[(3R,4R)-4-({5-chloro-4-[4-fluoro-1-(propan-2-yl)-1H-benzimidazol-6-yl]pyrimidin-2-yl}amino)-3-hydroxypiperidin-1-yl]-2-(methylamino)ethan-1-one] | 2.1 | 19.9
6 | Cc1nc2c(F)cc(-c3nc(N[C@@H]4CCNC[C@H]4O)ncc3F)cc2n1C(C)C [Example A37, (3R,4R)-4-({5-fluoro-4-[4-fluoro-2-methyl-1-(propan-2-yl)-1H-benzimidazol-6-yl]pyrimidin-2-yl}amino)piperidin-3-ol] | 3.5 | 34.2
7 | COC(=O)N1CC[C@@H](Nc2ncc(Cl)c(-c3cc(F)c4ncn(C5CCOC5)c4c3)n2)[C@H](O)C1 (single isomer, unassigned) [Example F02] | 4.3 | 39.9
8 | CC(C)n1c([C@@H](C)O)nc2c(F)cc(-c3nc(N[C@@H]4CCN(S(C)(=O)=O)C[C@@H]4O)ncc3Cl)cc21 (single isomer, unassigned) [Example F12] | 50 | –
9 | CC(C)n1c(C(N)=O)nc2c(F)cc(-c3nc(N[C@@H]4CCOC[C@H]4O)ncc3Cl)cc21 [Example A33] | 8.3 | 78
10 | CC1(n2c(CO)nc3c(F)cc(-c4nc(N[C@@H]5CCOC[C@H]5O)ncc4Cl)cc32)CC1 [Example A63, 1,5-anhydro-3-({5-chloro-4-[4-fluoro-2-(hydroxymethyl)-1-(1-methylcyclopropyl)-1H-benzimidazol-6-yl]pyrimidin-2-yl}amino)-2,3-dideoxy-D-threo-pentitol] | 0.9 | 9.7
11 | CC1(C)CNCc2nc3c(F)cc(-c4nc(N[C@@H]5CCOC[C@H]5O)ncc4Cl)cc3n21 [Example A46, 1,5-anhydro-3-{[5-chloro-4-(9-fluoro-4,4-dimethyl-1,2,3,4-tetrahydropyrazino[1,2-a]benzimidazol-7-yl)pyrimidin-2-yl]amino}-2,3-dideoxy-D-threo-pentitol] | 2.3 | 40.5
12 | CS(=O)(=O)N1CC[C@@H](Nc2ncc(Cl)c(-c3cc(F)c4nc(CO)n(CC(F)(F)F)c4c3)n2)[C@H](O)C1 [Example A90, (3R,4R)-4-({5-chloro-4-[4-fluoro-2-(hydroxymethyl)-1-(2,2,2-trifluoroethyl)-1H-benzimidazol-6-yl]pyrimidin-2-yl}amino)-1-(methanesulfonyl)piperidin-3-ol] | 0.2 | 1.1
13 | Cc1nc2c(F)cc(-c3nc(N[C@H]4CCN(S(C)(=O)=O)C[C@@H]4O)ncc3F)cc2n1C(C)C [Example F14, (3S,4S)-4-({5-fluoro-4-[4-fluoro-2-methyl-1-(propan-2-yl)-1H-benzimidazol-6-yl]pyrimidin-2-yl}amino)-1-(methanesulfonyl)piperidin-3-ol] | 3.6 | 30.8
14 | CC1OCC(C)n2c1nc1c(F)cc(-c3nc(N[C@@H]4CCOC[C@H]4O)ncc3Cl)cc12 (single isomer, unassigned) [Example A20] | – | 20.4
15 | CC(C)n1c([C@H](C)O)nc2c(F)cc(-c3cc(N[C@@H]4CCOC[C@H]4O)ncc3Cl)cc21 [Example D02, 1,5-anhydro-3-[(5-chloro-4-{4-fluoro-2-[(1S)-1-hydroxyethyl]-1-(propan-2-yl)-1H-benzimidazol-6-yl}pyridin-2-yl)amino]-2,3-dideoxy-D-threo-pentitol] | 1 | 9.3
16 | CC(C)n1c([C@H](C)O)nc2c(F)cc(-c3cc(N[C@@H]4CCN(S(C)(=O)=O)C[C@H]4O)ncc3Cl)cc21 [Example D01, (3R,4R)-4-[(5-chloro-4-{4-fluoro-2-[(1S)-1-hydroxyethyl]-1-(propan-2-yl)-1H-benzimidazol-6-yl}pyridin-2-yl)amino]-1-(methanesulfonyl)piperidin-3-ol] | 0.4 | 1.7
17 | CC1OCC(C)n2c1nc1c(F)cc(-c3nc(N[C@@H]4CCOC[C@H]4O)ncc3Cl)cc12 (single isomer, unassigned) [Example A21] | – | 136
18 | CC(O)c1nc2c(F)cc(-c3nc(N[C@@H]4CCN(S(=O)(=O)C(F)F)C[C@H]4O)ncc3Cl)cc2n1C(C)C (stereo partly drawn) [Example F09, (3R,4R)-4-({5-chloro-4-[4-fluoro-2-(1-hydroxyethyl)-1-(propan-2-yl)-1H-benzimidazol-6-yl]pyrimidin-2-yl}amino)-1-(difluoromethanesulfonyl)piperidin-3-ol] | 0.6 | –
19 | COC(=O)N1CC[C@@H](Nc2ncc(Cl)c(-c3cc(F)c4ncn(C5CCOC5)c4c3)n2)[C@H](O)C1 (single isomer, unassigned) [Example F03] | 2.7 | 26.4
20 | COc1cnc(N[C@@H]2CCN(S(C)(=O)=O)C[C@H]2O)nc1-c1cc(F)c2nc(C)n(C(C)C)c2c1 [Example A82, (3R,4R)-4-({4-[4-fluoro-2-methyl-1-(propan-2-yl)-1H-benzimidazol-6-yl]-5-methoxypyrimidin-2-yl}amino)-1-(methanesulfonyl)piperidin-3-ol] | 3.8 | 24.6
21 | Cc1nc2c(F)cc(-c3nc(N[C@@H]4CCN(S(C)(=O)=O)C[C@H]4O)ncc3Cl)cc2n1[C@@H](C)CN [Example A39, (3R,4R)-4-[(4-{1-[(2S)-1-aminopropan-2-yl]-4-fluoro-2-methyl-1H-benzimidazol-6-yl}-5-chloropyrimidin-2-yl)amino]-1-(methanesulfonyl)piperidin-3-ol] | 1.3 | 12.3
22 | C[C@@H](N)c1nc2c(F)cc(-c3nc(N[C@@H]4CCOC[C@H]4O)ncc3Cl)cc2n1C(C)(C)C [Example A42, 3-[(4-{2-[(1R)-1-aminoethyl]-1-tert-butyl-4-fluoro-1H-benzimidazol-6-yl}-5-chloropyrimidin-2-yl)amino]-1,5-anhydro-2,3-dideoxy-D-threo-pentitol] | 6 | 54.7
23 | CS(=O)(=O)N1CC[C@@H](Nc2ncc(Cl)c(-c3cc(F)c4nc(CO)n(C5CCC5)c4c3)n2)[C@H](O)C1 [Example A65, (3R,4R)-4-({5-chloro-4-[1-cyclobutyl-4-fluoro-2-(hydroxymethyl)-1H-benzimidazol-6-yl]pyrimidin-2-yl}amino)-1-(methanesulfonyl)piperidin-3-ol] | 0.6 | 3.5
24 | CC(C)n1c([C@@H](C)O)nc2c(F)cc(-c3cc(N[C@@H]4CCN(S(C)(=O)=O)C[C@H]4O)ncc3Cl)cc21 [Example D03, (3R,4R)-4-[(5-chloro-4-{4-fluoro-2-[(1R)-1-hydroxyethyl]-1-(propan-2-yl)-1H-benzimidazol-6-yl}pyridin-2-yl)amino]-1-(methanesulfonyl)piperidin-3-ol] | 0.6 | 4.7
25 | CC(C)n1c([C@@H](C)O)nc2c(F)cc(-c3nc(N[C@H]4CCN(S(C)(=O)=O)C[C@@H]4O)ncc3Cl)cc21 [Example F13, (3S,4S)-4-[(5-chloro-4-{4-fluoro-2-[(1R)-1-hydroxyethyl]-1-(propan-2-yl)-1H-benzimidazol-6-yl}pyrimidin-2-yl)amino]-1-(methanesulfonyl)piperidin-3-ol] | 11.6 | –
